In US5464818A (priority 1993, dated 1995):
Like-named read-outs stand apart in the source and are kept apart here. *1 amine or outer side, *2 acyl side, *3 side chain or, on linkers, in order; H or OH if unused. Where a SMILES comes first, the peptide text is derived from it. [ ]: non-standard residue; d: D form. The star is where a group is joined. Sta = CC(C)C[C@H](N)[C@@H](O)CC(=O)O; AMC = Cc1cc(=O)oc2cc(N*)ccc12; Suc = O=C(CCC(=O)[*:2])[*:1]; Isovaleryl = CC(C)CC(=O)*

What was measured:
[1] = test system: Clostridium perfringens FERM BP-4584 (7544S) cell growth-stimulating protein having proteinase activity (MW about 420,000); format: biochemical
[2] = test system: Clostridium perfringens FERM BP-4584 (7544S) cell growth-stimulating protein having proteinase activity (MW about 420,000); format: biochemical; remark: listed apart in the source
[3] = inhibitor conc. 0.01 mM, substrate Suc-Ala-Ala-Pro-Phe-MCA
[4] = inhibitor conc. 1.0 mM, substrate Suc-Ala-Ala-Pro-Phe-MCA

CC(C)C[C@H](NC(=O)N[C@H](C(=O)N[C@@H](CCC(N)=O)C(=O)N[C@@H](C)C=O)[C@@H]1CCNC(=N)N1)C(=O)O [Elastatinal]
Residual activity [1, 3]: 98%

O=C(O)CN(CCN(CC(=O)O)CC(=O)O)CC(=O)O [Ethylenediamine tetraacetic acid]
Residual activity [1, 4]: 34%

O=C(O)CI [Iodoacetic acid]
Residual activity ([1]; inhibitor conc. 0.1 mM, substrate Suc-Ala-Ala-Pro-Phe-MCA): 100%

CC(C)CC(=O)N[C@H](C(=O)N[C@H](C(=O)N[C@@H](CC(C)C)[C@@H](O)CC(=O)N[C@@H](C)C(=O)N[C@@H](CC(C)C)[C@@H](O)CC(=O)O)C(C)C)C(C)C [Pepstatin A] (Isovaleryl-VV[Sta]A[Sta]-OH)
Residual activity [1, 3]: 103%

Cc1cc(=O)oc2cc(NC(=O)[C@H](Cc3ccccc3)NC(=O)[C@@H]3CCCN3C(=O)[C@H](C)NC(=O)[C@H](C)NC(=O)CCC(=O)O)ccc12 [Suc--Ala--Ala--Pro--Phe--MCA, succinyl-alanyl-alanyl-prolyl-phenylalanine-4-methyl-coumaryl-7-amide] (Suc-AAPF-{AMC})
Km [2]: 4.2 mM | Vmax ([2]; substrate Suc-Ala-Ala-Pro-Phe-MCA, optimum pH 6.2-7.0): 230 μ mol/min/mg

c1cnc2c(c1)ccc1cccnc12 [o-Phenanthroline]
Residual activity [1, 4]: 85%

Chymostatin
Residual activity [1, 3]: 62%

Toluene sulfonylfluoride
Residual activity [1]: 1%
